Results published in patent US8044079B2, “Substituted oxindole derivatives, medicaments containing said derivatives and use thereof” (Abbott GmbH & Co. KG, priority 2005, dated 2011).

These molecules were tested against T1, human vasopressin V1b receptor (Homo sapiens, UniProt P47901) (assay: Vasopressin V1b receptor binding test). Details: membranes of CHO-K1 cells with human V1b receptor, displacement of 1.5 nM 3H-AVP; for compounds with more than one stereogenic center the diastereomer with greater affinity.
T1 construct: expressed in transfected cells; host or cells: CHO-K1 (cell line hV1b_3H2_CHO), membrane preparation
T1 sequence (P47901 1-424): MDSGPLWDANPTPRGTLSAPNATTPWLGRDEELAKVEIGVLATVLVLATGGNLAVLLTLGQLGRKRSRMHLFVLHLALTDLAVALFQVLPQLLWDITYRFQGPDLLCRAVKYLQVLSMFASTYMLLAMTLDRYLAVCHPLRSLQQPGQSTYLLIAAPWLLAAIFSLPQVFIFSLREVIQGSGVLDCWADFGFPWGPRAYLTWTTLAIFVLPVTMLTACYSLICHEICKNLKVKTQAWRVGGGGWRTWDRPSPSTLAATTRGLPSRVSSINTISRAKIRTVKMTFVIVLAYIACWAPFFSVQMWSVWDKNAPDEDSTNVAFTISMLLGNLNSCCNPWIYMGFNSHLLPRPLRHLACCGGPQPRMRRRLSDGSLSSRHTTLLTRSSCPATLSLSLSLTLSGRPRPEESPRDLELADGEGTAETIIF
Summary of the method: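 Radioligand displacement on membranes carrying human V1b receptor in 50 mM tris, 10 mM MgCl2, 0.1% BSA, pH 7.4, 2% DMSO final; 60 min at room temperature, nonspecific binding with 1 μM AVP. Free ligand removed by filtration, bound counted by liquid scintillation, Ki from nonlinear regression of triplicates.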

SMILES	Ki [µM]
COc1ccc(S(=O)(=O)N2C(=O)C(c3ccc(CN4CCN(C(C)C)CC4)cc3OC)(N3C[C@H](O)C[C@H]3c3ncco3)c3cc(Cl)ccc32)cc1 (stereo partly drawn) [Example 166, 5-Chloro-3-((2S,4R)-4-hydroxy-2-oxazol-2-yl-pyrrolidin-1-yl)-3-[4-(4-isopropylpiperazin-1-ylmethyl)-2-methoxyphenyl]-1-(4-methoxybenzenesulfonyl)-1,3-dihydroindol-2-one]	< 0.01
COc1ccc(S(=O)(=O)N2C(=O)C(c3cc(CNC4CC4)ccc3OC)(N3CCC[C@H]3c3ncco3)c3cc(Cl)ccc32)cc1 (stereo partly drawn) [Example 168, 5-Chloro-3-(5-cyclopropylaminomethyl-2-methoxyphenyl)-1-(4-methoxybenzenesulfonyl)-3-((S)-2-oxazol-2-yl-pyrrolidin-1-yl)-1,3-dihydroindol-2-one]	< 0.01
CCN(C)Cc1ccc(C2(N3C[C@H](O)C[C@H]3c3ncco3)C(=O)N(S(=O)(=O)c3ccc(OC)cc3)c3ccc(Cl)cc32)c(OC)c1 (stereo partly drawn) [Example 170, 5-Chloro-3-{4-[(ethylmethylamino)methyl]-2-methoxyphenyl}-3-((2S,4R)-4-hydroxy-2-oxazol-2-yl-pyrrolidin-1-yl)-1-(4-methoxybenzenesulfonyl)-1,3-dihydroindol-2-one]	< 0.01
COc1ccc(CN2CCN(C)CC2)cc1C1(N2CCC[C@H]2c2ncco2)C(=O)N(S(=O)(=O)c2cccs2)c2ccc(Cl)cc21 (stereo partly drawn) [Example 171, 5-Chloro-3-[2-methoxy-5-(4-methylpiperazin-1-ylmethyl)phenyl]-3-((S)-2-oxazol-2-yl-pyrrolidin-1-yl)-1-(thiophene-2-sulfonyl)-1,3-dihydroindol-2-one]	0.01 to 0.1
COc1ccc(S(=O)(=O)N2C(=O)C(c3cc(CN4CCN(C)CC4)ccc3F)(N3CCC[C@H]3c3ncco3)c3cc(Cl)ccc32)cc1 (stereo partly drawn) [Example 173, 5-Chloro-3-[2-fluoro-5-(4-methylpiperazin-1-ylmethyl)phenyl]-1-(4-methoxybenzenesulfonyl)-3-((S)-2-oxazol-2-yl-pyrrolidin-1-yl)-1,3-dihydroindol-2-one]	0.01 to 0.1
COc1ccc(S(=O)(=O)N2C(=O)C(c3cc(CN(C)C)ccc3F)(N3CCC[C@H]3c3ncco3)c3cc(Cl)ccc32)cc1 (stereo partly drawn) [Example 174, 5-Chloro-3-(5-dimethylaminomethyl-2-fluorophenyl)-1-(4-methoxybenzenesulfonyl)-3-((S)-2-oxazol-2-yl-pyrrolidin-1-yl)-1,3-dihydroindol-2-one]	0.01 to 0.1
COc1ccc(S(=O)(=O)N2C(=O)C(c3cc(CNC(C)C)ccc3F)(N3CCC[C@H]3c3ncco3)c3cc(Cl)ccc32)cc1 (stereo partly drawn) [Example 175, 5-Chloro-3-[2-fluoro-5-(isopropylaminomethyl)phenyl]-1-(4-methoxybenzenesulfonyl)-3-((S)-2-oxazol-2-yl-pyrrolidin-1-yl)-1,3-dihydroindol-2-one]	0.01 to 0.1
CCNCc1ccc(F)c(C2(N3CCC[C@H]3c3ncco3)C(=O)N(S(=O)(=O)c3ccc(OC)cc3)c3ccc(Cl)cc32)c1 (stereo partly drawn) [Example 176, 5-Chloro-3-(5-ethylaminomethyl-2-fluorophenyl)-1-(4-methoxybenzenesulfonyl)-3-((S)-2-oxazol-2-yl-pyrrolidin-1-yl)-1,3-dihydroindol-2-one]	0.01 to 0.1
CCCNCc1ccc(OC)c(C2(N3C[C@H](O)C[C@H]3c3ncco3)C(=O)N(S(=O)(=O)c3ccc(OC)cc3)c3ccc(C#N)cc32)c1 (stereo partly drawn) [Example 177, 5-Cyano-3-((2S,4R)-4-hydroxy-2-oxazol-2-yl-pyrrolidin-1-yl)-1-(4-methoxybenzenesulfonyl)-3-(2-methoxy-5-propylaminomethylphenyl)-1,3-dihydroindol-2-one]	< 0.01
COc1cc(CN2CCN(C)CC2)ccc1C1(N2C[C@H](O)C[C@H]2c2ncco2)C(=O)N(S(=O)(=O)c2ccc(C#N)cc2)c2ccc(Cl)cc21 (stereo partly drawn) [Example 180, 5-Chloro-3-((2S,4R)-4-hydroxy-2-oxazol-2-yl-pyrrolidin-1-yl)-3-[2-methoxy-4-(4-methylpiperazin-1-ylmethyl)phenyl]-1-(4-cyanobenzenesulfonyl)-1,3-dihydroindol-2-one]	< 0.01
CCN1CCN(Cc2ccc(C3(N4C[C@H](O)C[C@H]4c4ncco4)C(=O)N(S(=O)(=O)c4ccc(C#N)cc4)c4ccc(Cl)cc43)c(OC)c2)CC1 (stereo partly drawn) [Example 181, 5-Chloro-3-[4-(4-ethylpiperazin-1-ylmethyl)-2-methoxyphenyl]-3-((2S,4R)-4-hydroxy-2-oxazol-2-yl-pyrrolidin-1-yl)-1-(4-cyanobenzenesulfonyl)-1,3-dihydroindol-2-one]	< 0.01
COc1cc(CN(C)C)ccc1C1(N2C[C@H](O)C[C@H]2c2ncco2)C(=O)N(S(=O)(=O)c2ccc(C#N)cc2)c2ccc(Cl)cc21 (stereo partly drawn) [Example 182, 5-Chloro-3-(4-dimethylaminomethyl-2-methoxyphenyl)-3-((2S,4R)-4-hydroxy-2-oxazol-2-yl-pyrrolidin-1-yl)-1-(4-cyanobenzenesulfonyl)-1,3-dihydroindol-2-one]	0.01 to 0.1
CNCc1cc2c(c(C3(N4CCC[C@H]4c4ncco4)C(=O)N(S(=O)(=O)c4ccc(OC)cc4)c4ccc(Cl)cc43)c1)OCO2 (stereo partly drawn) [Example 185, 5-Chloro-1-(4-methoxybenzenesulfonyl)-3-(6-methylaminomethylbenzo[1,3]dioxol-4-yl)-3-((S)-2-oxazol-2-yl-pyrrolidin-1-yl)-1,3-dihydroindol-2-one]	0.01 to 0.1
COc1ccc(S(=O)(=O)N2C(=O)C(c3cc(CN(C)C)cc4c3OCO4)(N3CCC[C@H]3c3ncco3)c3cc(Cl)ccc32)cc1 (stereo partly drawn) [Example 186, 5-Chloro-3-(6-dimethylaminomethylbenzo[1,3]dioxol-4-yl)-1-(4-methoxybenzenesulfonyl)-3-((S)-2-oxazol-2-yl-pyrrolidin-1-yl)-1,3-dihydroindol-2-one]	0.01 to 0.1
COc1ccc(S(=O)(=O)N2C(=O)C(c3cc(CNC(C)C)cc4c3OCO4)(N3CCC[C@H]3c3ncco3)c3cc(Cl)ccc32)cc1 (stereo partly drawn) [Example 187, 5-Chloro-3-[6-(isopropylaminomethyl)benzo[1,3]dioxol-4-yl]-1-(4-methoxybenzenesulfonyl)-3-((S)-2-oxazol-2-yl-pyrrolidin-1-yl)-1,3-dihydroindol-2-one]	< 0.01

The remaining lines, values ahead:

Ki [µM]	SMILES
< 0.01	CNCc1cnc(OC)c(C2(N3CCC[C@H]3c3ncco3)C(=O)N(S(=O)(=O)c3ccc(OC)cc3)c3ccc(Cl)cc32)c1 (stereo partly drawn) [Example 167, 5-Chloro-1-(4-methoxybenzenesulfonyl)-3-(2-methoxy-5-methylaminomethylpyridin-3-yl)-3-((S)-2-oxazol-2-yl-pyrrolidin-1-yl)-1,3-dihydroindol-2-one]
< 0.01	COc1ccc(S(=O)(=O)N2C(=O)C(c3ccc(CN4CCCCC4)cc3OC)(N3C[C@H](O)C[C@H]3c3ncco3)c3cc(Cl)ccc32)cc1 (stereo partly drawn) [Example 169, 5-Chloro-3-((2S,4R)-4-hydroxy-2-oxazol-2-yl-pyrrolidin-1-yl)-1-(4-methoxybenzenesulfonyl)-3-(2-methoxy-4-piperidin-1-ylmethylphenyl)-1,3-dihydroindol-2-one]
0.01 to 0.1	COc1ccc(S(=O)(=O)N2C(=O)C(c3ccc(CN(C)C)cc3OC)(N3C[C@H](O)C[C@H]3c3ncco3)c3cc(C#N)ccc32)cc1 (stereo partly drawn) [Example 172, 5-Cyano-3-(4-dimethylaminomethyl-2-methoxyphenyl)-3-((2S,4R)-4-hydroxy-2-oxazol-2-yl-pyrrolidin-1-yl)-1-(4-methoxybenzenesulfonyl)-1,3-dihydroindol-2-one]
< 0.01	COc1ccc(S(=O)(=O)N2C(=O)C(c3ccc(CN4CCN(C)CC4)cc3OC)(N3C[C@H](O)C[C@H]3c3ncco3)c3cc(C#N)ccc32)cc1 (stereo partly drawn) [Example 178, 5-Cyano-3-((2S,4R)-4-hydroxy-2-oxazol-2-yl-pyrrolidin-1-yl)-1-(4-methoxybenzenesulfonyl)-3-[2-methoxy-4-(4-methylpiperazin-1-ylmethyl)phenyl]-1,3-dihydroindol-2-one]
< 0.01	CCN1CCN(Cc2ccc(C3(N4C[C@H](O)C[C@H]4c4ncco4)C(=O)N(S(=O)(=O)c4ccc(OC)cc4)c4ccc(C#N)cc43)c(OC)c2)CC1 (stereo partly drawn) [Example 179, 5-Cyano-3-[4-(4-ethylpiperazin-1-ylmethyl)-2-methoxyphenyl]-3-((2S,4R)-4-hydroxy-2-oxazol-2-yl-pyrrolidin-1-yl)-1-(4-methoxybenzenesulfonyl)-1,3-dihydroindol-2-one]
0.01 to 0.1	COc1cc(CN2CCCC2)ccc1C1(N2C[C@H](O)C[C@H]2c2ncco2)C(=O)N(S(=O)(=O)c2ccc(C#N)cc2)c2ccc(Cl)cc21 (stereo partly drawn) [Example 183, 5-Chloro-3-((2S,4R)-4-hydroxy-2-oxazol-2-yl-pyrrolidin-1-yl)-3-(2-methoxy-4-(pyrrolidin-1-ylmethyl)phenyl)-1-(4-cyanobenzenesulfonyl)-1,3-dihydroindol-2-one]
< 0.01	COc1ccc(S(=O)(=O)N2C(=O)C(c3cc(CN4CCN(C)CC4)cc4c3OCO4)(N3CCC[C@H]3c3ncco3)c3cc(Cl)ccc32)cc1 (stereo partly drawn) [Example 184, 5-Chloro-1-(4-methoxybenzenesulfonyl)-3-[6-(4-methylpiperazin-1-ylmethyl)benzo[1,3]dioxol-4-yl]-3-((S)-2-oxazol-2-yl-pyrrolidin-1-yl)-1,3-dihydroindol-2-one]
